Here are results for one molecule from patent publication US20250339360A1, “COSMETIC COMPOSITIONS COMPRISING RETINOIDS AND MOISTURIZERS AND METHODS FOR STABLIZING RETINOIDS” (ELC Management LLC, priority 2024, published 2025).

The data set can be described thus: Retinoid storage stability in stability chamber, hydroxypinacolone retinoate analysed by UPLC/UV-VIS at 360 nm. As to conditions: 6-month testing period, 25° C. and 40° C., within measurement accuracy. Type of data set: physicochemical. The protocol:
The above samples were tested under two sets of temperature conditions. Each sample was placed in a stability chamber maintained at either room temperature (25° C.±2° C.) or accelerated (elevated) temperature (40° C.±2° C.). Each stability chamber was maintained at a relative humidity of 60%+5%. Stability of the retinoid was monitored at various time points: initially, after one month, after two months, after three months, and after six months. Assessment of the retinoid stability was conducted by removing a sample from the stability chamber and analyzing for hydroxypinacolone retinoate by UPLC/UV-VIS (Waters ACQUITY UPLC H-Class PLUS System with a photodiode array (PDA) detector). A wavelength of 360 nm was used for analyses. The measured concentrations were determined with a measurement accuracy of about +10%. The initial and subsequent concentrations are believed to deviate from the expected 0.1 wt % due to some initial degradation of the stock hydroxypinacolone retinoate.

`CC1=C(/C=C/C(C)=C/C=C/C(C)=C/C(=O)OCC(=O)C(C)(C)C)C(C)(C)CCC1` [hydroxypinacolone retinoate]: the “Hydroxypinacolone retinoate concentration over the testing period” value is given as “remained essentially constant”.
